Among the data in ChEMBL document CHEMBL5727030, “Factor IXa inhibitors” (2018) are IC50 values, retold here.

In this assay the target is Coagulation factor IX (Homo sapiens, UniProt P00740). As to the kind of experiment: Test substances were dissolved in buffer A (50 mM α,α,α-tris(hydroxymethyl) methylamine (Tris), 100 mM NaCl, 5 mM CaCl2, 15% (v/v) ethylene glycol, pH 8.0) were mixed with factor IXa (0.1 μg/ml final concentration). The enzyme reaction was started by addition of SPECTROFLUOR FIXa (100 μM final concentration).
Sequence of Coagulation factor IX (P00740 47-191 limits assumed): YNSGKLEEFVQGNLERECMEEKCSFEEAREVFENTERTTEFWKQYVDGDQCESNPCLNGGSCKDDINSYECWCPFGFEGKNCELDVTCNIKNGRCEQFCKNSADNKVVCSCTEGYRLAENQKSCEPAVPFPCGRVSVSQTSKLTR
Sequence of Coagulation factor IX (P00740 227-461 limits assumed): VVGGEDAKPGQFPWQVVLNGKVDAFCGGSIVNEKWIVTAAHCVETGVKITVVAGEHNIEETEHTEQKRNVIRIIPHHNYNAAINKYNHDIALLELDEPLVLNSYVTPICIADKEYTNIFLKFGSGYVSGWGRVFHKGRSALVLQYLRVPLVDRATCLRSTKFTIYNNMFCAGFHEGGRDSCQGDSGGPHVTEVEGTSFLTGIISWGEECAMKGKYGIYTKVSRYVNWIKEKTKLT

Where only a bound is given, the exact number is not on record here.

Broadly, the IC50 is the concentration that gives 50% inhibition. A high value points to weaker potency in that assay. For the compound `Nc1noc2c(N3CCC(NC(=O)c4c(Cl)cc(-n5cnnc5)cc4Cl)(c4ccccc4)C3)cccc12` (stereo unspecified), the IC50 was < 0.1 µM.
